Reference: patent publication US8158792B2, “Spiropiperidines for use as tryptase inhibitors” (Janssen Pharmaceutica N.V., priority 2007, dated 2012)

What follows are molecules tested against human lung tryptase (assay: β-Tryptase In-Vitro Enzyme Assay). Conditions: human lung tryptase 1 nM, substrate H-D-HHT-Ala-Arg-pNa 500 μM, pH 7.4, room temperature.
Format: biochemical
Description: The β-tryptase assay was conducted with human lung tryptase (Cortex Biochem #CP3033) in an aqueous buffer (10 mM Tris, 10 mM Hepes, 150 mM NaCl, 0.1% PEG 8000, pH 7.4) using the chromogenic substrate H-D-HHT-Ala-Arg-pNa. […] Percent inhibition was calculated by comparing the initial reaction velocity of samples without inhibitor to those with inhibitor. The initial reaction velocities were analyzed using Microsoft Excel.

| Compound | IC50 [nM] |
| --- | --- |
| CCc1ccc2c(Cl)c(C(=O)N3CCC4(CC3)COc3ccc(CN)cc34)sc2c1 [Cpd 271, 1-(3-chloro-6-ethyl-benzo[b]thien-2-yl)carbonyl-5′-aminomethyl-spiro[piperidine-4,3′-(2H)-benzo[b]furan]] | 2800 |
| NCc1ccc2c(c1)C1(CCN(C(=O)/C=C/c3ccccc3O)CC1)CO2 [Cpd 272, (E)-1-(2-hydroxy-phenylethenyl)carbonyl-5′-aminomethyl-spiro[piperidine-4,3′-(2H)-benzo[b]furan]] | 190 |
| NCc1ccc2c(c1)C1(CCN(C(=O)c3cccc(C(N)=O)c3)CC1)CO2 [Cpd 273, 1-(3-aminocarbonyl-phenyl)carbonyl-5′-aminomethyl-spiro[piperidine-4,3′-(2H)-benzo[b]furan]] | 1200 |
| CC(C)(C)c1cccc(C(=O)N2CCC3(CC2)COc2ccc(CN)cc23)c1 [Cpd 274, 1-(3-tert-butyl-phenyl)carbonyl-5′-aminomethyl-spiro[piperidine-4,3′-(2H)-benzo[b]furan]] | 6400 |
| NCc1ccc2c(c1)C1(CCN(C(=O)c3sc(Cl)c(Cl)c3Cl)CC1)CO2 [Cpd 275, 1-(3,4,5-trichloro-thien-2-yl)carbonyl-5′-aminomethyl-spiro[piperidine-4,3′-(2H)-benzo[b]furan]] | 22 |
| C[SH]1C=C(C(F)(F)F)C2=C1NN(C(=O)N1CCC3(CC1)COc1ccc(CN)cc13)C2 (stereo not drawn) [Cpd 276, 1-(4-trifluoromethyl-6-methyl-1H-thieno[2,3-c]pyrazol-2-yl)carbonyl-5′-aminomethyl-spiro[piperidine-4,3′-(2H)-benzo[b]furan]] | 150 |
| NCc1ccc2c(c1)C1(CCN(C(=O)c3nc(-c4cccs4)no3)CC1)CO2 [Cpd 277, 1-(3-thien-2-yl-[1,2,4]oxadiazol-5-yl)carbonyl-5′-aminomethyl-spiro[piperidine-4,3′-(2H)-benzo[b]furan]] | 6 |
| NCc1ccc2c(c1)C1(CCN(C(=O)c3cc(Br)c(Br)s3)CC1)CO2 [Cpd 278, 1-(4,5-dibromo-thien-2-yl)carbonyl-5′-aminomethyl-spiro[piperidine-4,3′-(2H)-benzo[b]furan]] | 12 |
| NCc1ccc2c(c1)C1(CCN(C(=O)c3ccc(Oc4cc(C(F)(F)F)cc(C(F)(F)F)c4)cc3)CC1)CO2 [Cpd 279, 1-[4-(3,5-bis-trifluoromethyl-phenoxy)-phenyl]carbonyl-5′-aminomethyl-spiro[piperidine-4,3′-(2H)-benzo[b]furan]] | 8000 |
| NCc1ccc2c(c1)C1(CCN(S(=O)(=O)c3ccc(Cl)c(Cl)c3)CC1)CO2 [Cpd 280, 1-(3,4-dichlorophenyl)sulfonyl-5′-aminomethyl-spiro[piperidine-4,3′-(2H)-benzo[b]furan]] | 220 |
| NCc1ccc2c(c1)C1(CCN(C(=O)/C=C/c3cccc(OCc4ccccc4)c3)CC1)CO2 [Cpd 281, (E)-1-(3-benzyloxy-phenylethenyl)carbonyl-5′-aminomethyl-spiro[piperidine-4,3′-(2H)-benzo[b]furan]] | 24 |
| CC(C)(C)c1ccc(C#Cc2ccc(C(=O)N3CCC4(CC3)COc3ccc(CN)cc34)o2)cc1 [Cpd 282, 1-[5-(4-tert-butyl-phenylethynyl)-furan-2-yl]carbonyl-5′-aminomethyl-spiro[piperidine-4,3′-(2H)-benzo[b]furan]] | 700 |
| NCc1ccc2c(c1)C1(CCN(C(=O)c3cc4ccccc4n3S(=O)(=O)c3ccccc3)CC1)CO2 [Cpd 283, 1-(1-phenylsulfonyl-1H-indol-2-yl)carbonyl-5′-aminomethyl-spiro[piperidine-4,3′-(2H)-benzo[b]furan]] | 910 |
| NCc1ccc2c(c1)C1(CCN(C(=O)c3cc(C(N)=O)cc(-c4nc(-c5cccs5)no4)c3)CC1)CO2 [Cpd 284, 1-[3-(3-thien-2-yl-[1,2,4]oxadiazol-5-yl)-5-aminocarbonyl-phenyl]carbonyl-5′-aminomethyl-spiro[piperidine-4,3′-(2H)-benzo[b]furan]] | 4.6 |
| NCc1ccc2c(c1)C1(CCN(C(=O)c3cc4ccccc4[nH]3)CC1)CO2 [Cpd 285, 1-1H-indol-2-ylcarbonyl-5′-aminomethyl-spiro[piperidine-4,3′-(2H)-benzo[b]furan]] | 360 |
| NCc1ccc2c(c1)C1(CCN(C(=O)C3=CCc4ccccc43)CC1)CO2 [Cpd 286, 1-3H-inden-1-ylcarbonyl-5′-aminomethyl-spiro[piperidine-4,3′-(2H)-benzo[b]furan]] | 920 |
| NCc1ccc2c(c1)C1(CCN(C(=O)C3CC(=O)c4ccccc43)CC1)CO2 (stereo not drawn) [Cpd 287, 1-(3-oxo-indan-1-yl)carbonyl-5′-aminomethyl-spiro[piperidine-4,3′-(2H)-benzo[b]furan]] | 4300 |
| NCc1ccc2c(c1)C1(CCN(C(=O)c3cc(-c4ccccc4)cs3)CC1)CO2 [Cpd 288, 1-(4-phenyl-thien-2-yl)carbonyl-5′-aminomethyl-spiro[piperidine-4,3′-(2H)-benzo[b]furan]] | 280 |
| NCc1ccc2c(c1)C1(CCN(C(=O)C3c4ccccc4-c4ccccc43)CC1)CO2 [Cpd 289, 1-fluoren-9-ylcarbonyl-5′-aminomethyl-spiro[piperidine-4,3′-(2H)-benzo[b]furan]] | 1400 |
| NCc1ccc2c(c1)C1(CCN(C(=O)C(c3ccccc3)c3ccccc3)CC1)CO2 [Cpd 290, 1-(1-oxo-2,2-diphenyl-ethyl)-5′-aminomethyl-spiro[piperidine-4,3′-(2H)-benzo[b]furan]] | 160 |
| COCCOc1cccc(/C=C/C(=O)N2CCC3(CC2)COc2ccc(CN)cc23)c1 [Cpd 291, (E)-1-[3-(2-methoxy-ethoxy)-phenylethenyl]carbonyl-5′-aminomethyl-spiro[piperidine-4,3′-(2H)-benzo[b]furan]] | 400 |
| NCc1ccc2c(c1)C1(CCN(C(=O)C3c4ccccc4Oc4ccccc43)CC1)CO2 [Cpd 292, 1-9H-xanthen-9-ylcarbonyl-5′-aminomethyl-spiro[piperidine-4,3′-(2H)-benzo[b]furan]] | 6100 |
| NCc1ccc2c(c1)C1(CCN(C(=O)C#Cc3ccccc3)CC1)CO2 [Cpd 296, 1-phenylethynylcarbonyl-5′-aminomethyl-spiro[piperidine-4,3′-(2H)-benzo[b]furan]] | 210 |

The remaining lines, values ahead:

| IC50 [nM] | Compound |
| --- | --- |
| 1200 | NCc1ccc2c(c1)C1(CCN(C(=O)CC3c4ccccc4Oc4ccccc43)CC1)CO2 [Cpd 293, 1-9H-xanthen-9-ylmethylcarbonyl-5′-aminomethyl-spiro[piperidine-4,3′-(2H)-benzo[b]furan]] |
| 97 | NCc1ccc2c(c1)C1(CCN(C(=O)/C=C/c3cccc(OCCc4ccccc4)c3)CC1)CO2 [Cpd 294, (E)-1-(3-phenethoxy-phenylethenyl)carbonyl-5′-aminomethyl-spiro[piperidine-4,3′-(2H)-benzo[b]furan]] |
| 42 | NCc1ccc2c(c1)C1(CCN(C(=O)c3cc(-c4ccccc4)c(C(F)(F)F)s3)CC1)CO2 [Cpd 295, 1-(4-phenyl-5-trifluoromethyl-thien-2-yl)carbonyl-5′-aminomethyl-spiro[piperidine-4,3′-(2H)-benzo[b]furan]] |
| 9600 | C[N+](C)(C)Cc1ccc2c(c1)C1(CCN(C(=O)c3ccc(C#Cc4ccccc4)o3)CC1)CO2 [Cpd 297, 1-(5-phenylethynyl-furan-2-yl)carbonyl-spiro[piperidine-4,3′-(2H)-benzo[b]furan]-5′-[methyl-(trimethyl)ammonium]] |
| 210 | NCc1ccc2c(c1)C1(CCN(C(=O)c3sc4ccc5ccccc5c4c3Cl)CC1)CO2 [Cpd 298, 1-(1-chloro-naphtho[2,1-b]thien-2-yl)carbonyl-5′-aminomethyl-spiro[piperidine-4,3′-(2H)-benzo[b]furan]] |
| 17 | CSc1cc(-c2ccc(Cl)cc2)c(C(=O)N2CCC3(CC2)COc2ccc(CN)cc23)s1 [Cpd 299, 1-[3-(4-chloro-phenyl)-5-methylthio-thien-2-yl]carbonyl-5′-aminomethyl-spiro[piperidine-4,3′-(2H)-benzo[b]furan]] |
| 1500 | NCc1ccc2c(c1)C1(CCN(C(=O)/C=C/c3ccc(OCc4ccccc4)cc3)CC1)CO2 [Cpd 300, (E)-1-(4-benzyloxy-phenylethenyl)carbonyl-5′-aminomethyl-spiro[piperidine-4,3′-(2H)-benzo[b]furan]] |
| 1500 | COCCCOc1cccc(/C=C/C(=O)N2CCC3(CC2)COc2ccc(CN)cc23)c1 [Cpd 301, (E)-1-[3-(3-methoxy-propoxy)-phenylethenyl]carbonyl-5′-aminomethyl-spiro[piperidine-4,3′-(2H)-benzo[b]furan]] |
| 750 | CCOCCOc1cccc(/C=C/C(=O)N2CCC3(CC2)COc2ccc(CN)cc23)c1 [Cpd 302, (E)-1-[3-(2-ethoxy-ethoxy)-phenylethenyl]carbonyl-5′-aminomethyl-spiro[piperidine-4,3′-(2H)-benzo[b]furan]] |
| 3.7 | CCCOc1sc(C(=O)N2CCC3(CC2)COc2ccc(CN)cc23)c(C)c1Br [Cpd 303, 1-(3-methyl-4-bromo-5-propoxy-thien-2-yl)carbonyl-5′-aminomethyl-spiro[piperidine-4,3′-(2H)-benzo[b]furan]] |
| 30 | O=CNCc1ccc2c(c1)C1(CCN(C(=O)c3ccc(C#Cc4ccccc4)o3)CC1)CO2 [Cpd 304, 1-(5-phenylethynyl-furan-2-yl)carbonyl-5′-formylaminomethyl-spiro[piperidine-4,3′-(2H)-benzo[b]furan]] |
| 6300 | NS(=O)(=O)NCc1ccc2c(c1)C1(CCN(C(=O)c3ccc(C#Cc4ccccc4)o3)CC1)CO2 [Cpd 305, 1-(5-phenylethynyl-furan-2-yl)carbonyl-5′-aminosulfonylaminomethyl-spiro[piperidine-4,3′-(2H)-benzo[b]furan]] |
| 71 | N=C(NO)c1ccc2c(c1)C1(CCN(C(=O)c3ccc(C#Cc4ccccc4)o3)CC1)CO2 [Cpd 306, 1-(5-phenylethynyl-furan-2-yl)carbonyl-5′-[hydroxyamino(imino)methyl]-spiro[piperidine-4,3′-(2H)-benzo[b]furan]] |
